The results in this text go back to BindingDB's records for doi:10.1021/jm00371a008 (1984).

Molecules are shown by their SMILES.

The target in the assay is Folylpolyglutamate synthase (Mus musculus). As to the kind of experiment: Compound was evaluated for the binding affinity to mouse liver folyl polyglutamate synthetase.
In turn, `CN(Cc1cnc2nc(N)nc(N)c2n1)c1ccc(C(=O)NC(CS(=O)(=O)O)C(=O)O)cc1` (centres undefined) [2-{4-[(2,4-Diamino-pteridin-6-ylmethyl)-methyl-amino]-benzoylamino}-3-sulfo-propionic acid] displayed a Ki of 136 µM.

Regarding `CN(Cc1cnc2nc(N)nc(N)c2n1)c1ccc(C(=O)NC(CCS(=O)(=O)O)C(=O)O)cc1` (centres undefined) [2-{4-[(2,4-Diamino-pteridin-6-ylmethyl)-methyl-amino]-benzoylamino}-4-sulfo-butyric acid], the affinity corresponds to a Ki of 198 µM.

Take `Nc1nc(N)c2nc(CNc3ccc(C(=O)NC(CCS(=O)(=O)O)C(=O)O)cc3)cnc2n1` (centres undefined) [2-{4-[(2,4-Diamino-pteridin-6-ylmethyl)-amino]-benzoylamino}-4-sulfo-butyric acid]: the Ki came to 59 µM.

For `Nc1nc(N)c2nc(CNc3ccc(C(=O)NC(CS(=O)(=O)O)C(=O)O)cc3)cnc2n1` (centres undefined) [2-{4-[(2,4-Diamino-pteridin-6-ylmethyl)-amino]-benzoylamino}-3-sulfo-propionic acid], the Ki came out at 43 µM.
